Measured values taken from patent publication US11897898B2, “Pyridine macrocycle compounds as ASK1 inhibiting agents” (BIOGEN MA INC., priority 2018, dated 2024).

Key:
ASK1/MAP3K5 = biological target: T1, ASK1/MAP3K5 (Homo sapiens, UniProt Q99683); assay: ASK1 enzyme assay (ASK1/MAP3K5 assay by Reaction Biology Corp., 33P-ATP filter-binding); format: biochemical; details: 20 μM myelin basic protein and 10 μM ATP
T1 construct: purchased Reaction Biology Corp. (Malvern, Pa.)
T1 sequence (Q99683 1-1374): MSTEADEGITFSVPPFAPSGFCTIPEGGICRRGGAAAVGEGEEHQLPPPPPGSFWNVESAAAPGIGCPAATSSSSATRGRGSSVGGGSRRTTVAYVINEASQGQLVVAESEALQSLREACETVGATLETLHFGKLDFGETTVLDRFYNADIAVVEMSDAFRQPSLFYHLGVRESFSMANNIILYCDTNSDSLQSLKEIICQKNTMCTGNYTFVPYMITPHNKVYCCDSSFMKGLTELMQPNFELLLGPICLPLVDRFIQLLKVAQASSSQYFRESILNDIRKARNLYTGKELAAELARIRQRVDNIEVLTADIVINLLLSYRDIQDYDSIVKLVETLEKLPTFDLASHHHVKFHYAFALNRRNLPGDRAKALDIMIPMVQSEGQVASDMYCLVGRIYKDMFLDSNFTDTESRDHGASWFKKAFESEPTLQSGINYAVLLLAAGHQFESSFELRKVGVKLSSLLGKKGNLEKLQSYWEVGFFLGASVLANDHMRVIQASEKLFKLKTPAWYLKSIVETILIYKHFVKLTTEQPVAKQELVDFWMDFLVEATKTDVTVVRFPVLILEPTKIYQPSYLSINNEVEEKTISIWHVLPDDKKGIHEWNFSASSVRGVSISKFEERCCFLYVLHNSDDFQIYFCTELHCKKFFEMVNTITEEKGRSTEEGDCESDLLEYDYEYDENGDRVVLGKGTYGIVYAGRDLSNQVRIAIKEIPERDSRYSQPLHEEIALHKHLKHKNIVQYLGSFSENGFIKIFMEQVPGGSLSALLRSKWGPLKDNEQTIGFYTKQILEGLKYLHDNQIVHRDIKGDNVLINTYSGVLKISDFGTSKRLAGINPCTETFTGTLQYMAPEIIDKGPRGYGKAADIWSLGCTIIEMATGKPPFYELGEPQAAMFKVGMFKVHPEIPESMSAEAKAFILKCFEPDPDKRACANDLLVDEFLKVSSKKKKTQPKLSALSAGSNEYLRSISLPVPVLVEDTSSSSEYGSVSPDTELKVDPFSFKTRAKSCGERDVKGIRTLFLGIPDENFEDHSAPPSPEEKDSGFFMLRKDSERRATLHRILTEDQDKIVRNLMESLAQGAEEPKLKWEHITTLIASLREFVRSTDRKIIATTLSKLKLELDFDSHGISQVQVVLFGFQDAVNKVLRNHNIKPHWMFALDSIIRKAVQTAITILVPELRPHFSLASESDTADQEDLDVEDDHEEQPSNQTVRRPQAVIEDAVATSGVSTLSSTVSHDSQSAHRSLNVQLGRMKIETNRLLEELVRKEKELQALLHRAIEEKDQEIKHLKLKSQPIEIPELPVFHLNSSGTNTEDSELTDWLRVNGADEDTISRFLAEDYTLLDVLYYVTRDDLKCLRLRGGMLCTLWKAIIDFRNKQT
Protocol: The protein kinase inhibitory activity of the compounds described herein were tested using the ASK1/MAP3K5 assay by Reaction Biology Corp. (Malvern, Pa.). The assay procedure follows (and is also available on the Reaction Biology Corp. website). • Base Reaction Buffer: 20 mM Hepes (pH 7.5), 10 mM MgCl2, 1 mM EGTA, • 0.02% Brij35, 0.02 mg/mL BSA, 0.1 mM Na3VO4, 2 mM DTT, 1% DMSO; • Substrate: 20 μM of myelin basic protein (MBP) and 10 μM ATP; • Protein kinase: ASK1/MAP3K5. • Reaction Procedure: • 1. Prepare indicated substrate in freshly prepared Base Reaction Buffer. • 2. Deliver any required cofactors to the substrate solution. • 3. Deliver indicated kinase into the substrate solution and gently mix. • 4. Deliver compounds in DMSO into the kinase reaction mixture by Acoustic; technology (Echo550; nanoliter range), incubate for 20 minutes at room temperature. • 5. Deliver ^33P-ATP (specific activity 10 μCi/μL) into the reaction mixture to initiate the reaction. • 6. Incubate kinase reaction for 2 hours at room temperature. • 7. Reactions are spotted onto P81 ion exchange paper. • 8. Detect kinase activity by filter-binding method.

[1] = biological target: T2, ASK1 T838 auto phosphorylation (Homo sapiens, UniProt Q99683); assay: ASK1 (AUTO PHOS T838) assay in HEK-293T cells, MSD format; format: cell-based; details: HEK-293T cells transfected with ASK1-V5, 1 hr compound incubation
T2 construct: ASK1-V5 tagged full length plasmid; expressed in transfected cells; host or cells: HEK-293T
T2 sequence (Q99683 1-1374): T1 sequence (Q99683 1-1374)
Protocol: ASK1 T838 auto phosphorylation was measured in HEK-293T cells using MSD assay format. HEK 293T cells were seeded in 15 cm plates at a density of 18 million cells and 20 mL DMEM with 10% FBS, Pen/Strep media. The plates were incubated at 37° C. overnight. Media on plates was changed to OPTI-MEM, serum free media and cells were transfected with 9 μg of ASK1-V5 tagged full length plasmid using Lipofectamine 2000 (Invitrogen) and the plates were incubated at 37° C. overnight. Cells were trypsinized, counted on Nexcellometer and plated into 96 well tissue culture plates with 100,000 cells/well and 200 μL media. Cells were incubated for 4 hr at 37° C. then ASK1 compounds were added using a HP 300e. Compounds were tested at 20 μM with 3 fold, 10 point dilution points then incubated for 1 hr at 37° C. A lysis buffer (Cell Signaling) was prepared with protease and phosphatase inhibitor and maintained at 4° C. until use. Media from cells was discarded and 120 μL of cold lysis buffer was added to the cells, the plate was shaken 4° C. for 1 hr. Lysate was mixed using Apricot liquid handler; aspirating up and down 16 times at high speed using 50 μL volume. 50 μL of cell lysates were transferred to a pre-coated MSD plates containing mouse anti-V5 antibody (1:500 dilution) and washed 3× with MSD wash buffer (TBST) and blocked with a 3% BSA solution. Plates were then incubated on a plate shaker overnight at 4° C. Plates were washed 3× with MSD wash buffer and 50 μL of rabbit anti-pASK1 T838 antibody was added to the wells and incubated for 2 hr at room temperature on a plate shaker. Plates were then washed and 50 μL of goat anti-rabbit sulfa-tag (1:500 dilution) was added to wells, and incubated for 1 hr at room temperature on a plate shaker. Plates were washed 3× and 150 μL of 2×MSD Read buffer was added to wells. Plates were immediately read on a MSD Instrument Reader where chemoluminecense signal was measured. Data was analyzed using Graph Pad or Genedata, the data was normalized and plotted, % activity versus log of compound concentration. The IC50 values were obtained from a 4 parameter fit.

Compound	IC50 (ASK1/MAP3K5; class symbols) [µM]	IC50 ([1]; class symbols) [µM]	IC50 [1] [µM]	IC50 (ASK1/MAP3K5) [µM]
C[C@H]1CCCOc2ncc(-c3cnccn3)cc2C(=O)Nc2cccc(n2)-c2nncn21 [Compound 22, (S)-10-Methyl-5^5-(pyrazin-2-yl)-1^4H-6-oxa-3-aza-2(2,6),5(3,2)-dipyridina-1(3,4)-triazolacyclodecaphan-4-one]	≤ 0.1	≤ 0.1		
C[C@@H]1CCCOc2ncccc2C(=O)Nc2cccc(n2)-c2nncn21 (single isomer, unassigned) [Compound 5]	1 to 10		≥ 10	
C[C@H]1CCCOc2ncc(C3=CCN(C)CC3)cc2C(=O)Nc2cccc(n2)-c2nncn21 [Compound 15, (S)-10-Methyl-5^5-(1-methyl-1,2,3,6-tetrahydropyridin-4-yl)-1^4H-6-oxa-3-aza-2(2,6),5(3,2)-dipyridina-1(3,4)-triazolacyclodecaphan-4-one]	≤ 0.1	≤ 0.1		
C[C@H]1CCCOc2ncc(N3CC(F)(F)C3)cc2C(=O)Nc2cccc(n2)-c2nncn21 [Compound 9, (S)-5^5-(3,3-Difluoroazetidin-1-yl)-10-methyl-1^4H-6-oxa-3-aza-2(2,6),5(3,2)-dipyridina-1(3,4)-triazolacyclodecaphan-4-one]	≤ 0.1	≤ 0.1		
C[C@@H]1CCCOc2ncc(Br)cc2C(=O)Nc2cccc(n2)-c2nncn21 (single isomer, unassigned) [Compound 2]	1 to 10		≥ 10	
C[C@@H]1CN(c2cnc3c(c2)C(=O)Nc2cccc(n2)-c2nncn2[C@@H](C)CCCO3)C[C@H](C)N1 [Compound 11, (S)-5^5-((3S,5R)-3,5-Dimethylpiperazin-1-yl)-10-methyl-1^4H-6-oxa-3-aza-2(2,6),5(3,2)-dipyridina-1(3,4)-triazolacyclodecaphan-4-one]	≤ 0.1	≤ 0.1		
C[C@@H]1CCCOc2ncc(-c3cnn(CCN(C)C)c3)cc2C(=O)Nc2cccc(n2)-c2nncn21 [Compound 24, (R)-5^5-(1-(2-(Dimethylamino)ethyl)-1H-pyrazol-4-yl)-10-methyl-1^4H-6-oxa-3-aza-2(2,6),5(3,2)-dipyridina-1(3,4)-triazolacyclodecaphan-4-one]	1 to 10	1 to 10		
COc1ccc(-c2cnc3c(c2)C(=O)Nc2cccc(n2)-c2nncn2[C@@H](C)CCCO3)cn1 [Compound 20, (S)-5^5-(6-Methoxypyridin-3-yl)-10-methyl-1^4H-6-oxa-3-aza-2(2,6),5(3,2)-dipyridina-1(3,4)-triazolacyclodecaphan-4-one]	≤ 0.1	≤ 0.1		
C[C@H]1CCCOc2ncc(N3CCOCC3)cc2C(=O)Nc2cccc(n2)-c2nncn21 [Compound 7, (S)-10-Methyl-5^5-morpholino-1^4H-6-oxa-3-aza-2(2,6),5(3,2)-dipyridina-1(3,4)-triazolacyclodecaphan-4-one]	≤ 0.1	≤ 0.1		
C[C@H]1CCCOc2ncc(-c3cncn3C)cc2C(=O)Nc2cccc(n2)-c2nncn21 [Compound 28, (S)-10-Methyl-5^5-(1-methyl-1H-imidazol-5-yl)-1^4H-6-oxa-3-aza-2(2,6),5(3,2)-dipyridina-1(3,4)-triazolacyclodecaphan-4-one]	≤ 0.1	≤ 0.1		
C[C@H]1CCCOc2ncc(-c3ccnnc3)cc2C(=O)Nc2cccc(n2)-c2nncn21 [Compound 23, (S)-10-Methyl-5^5-(pyridazin-4-yl)-1^4H-6-oxa-3-aza-2(2,6),5(3,2)-dipyridina-1(3,4)-triazolacyclodecaphan-4-one]	≤ 0.1	≤ 0.1		
C[C@H]1CCCOc2ncc(N3CC4CC(C3)O4)cc2C(=O)Nc2cccc(n2)-c2nncn21 [Compound 8, (10S)-5^5-(6-Oxa-3-azabicyclo[3.1.1]heptan-3-yl)-10-methyl-1^4H-6-oxa-3-aza-2(2,6),5(3,2)-dipyridina-1(3,4)-triazolacyclodecaphan-4-one]	≤ 0.1	≤ 0.1		

Now from value to compound:

IC50 (ASK1/MAP3K5; class symbols) [µM]	IC50 ([1]; class symbols) [µM]	IC50 [1] [µM]	IC50 (ASK1/MAP3K5) [µM]	Compound
≤ 0.1	≤ 0.1			C[C@H]1CCCOc2ncc(C3COC3)cc2C(=O)Nc2cccc(n2)-c2nncn21 [Compound 45, (S)-10-Methyl-5^5-(oxetan-3-yl)-1^4H-6-oxa-3-aza-2(2,6),5(3,2)-dipyridina-1(3,4)-triazolacyclodecaphan-4-one]
≤ 0.1	0.1 to 1			C[C@H]1CCCOc2ncc(-n3cncc3C3CC3)cc2C(=O)Nc2cccc(n2)-c2nncn21 (single isomer, unassigned) [Compound 33]
≤ 0.1	0.1 to 1			C[C@H]1CCCOc2ncc(C3CN(C)C3)cc2C(=O)Nc2cccc(n2)-c2nncn21 [Compound 47, (S)-10-Methyl-5^5-(1-methylazetidin-3-yl)-1^4H-6-oxa-3-aza-2(2,6),5(3,2)-dipyridina-1(3,4)-triazolacyclodecaphan-4-one]
1 to 10		≥ 10		C[C@@H]1CCCOc2ncc(C#N)cc2C(=O)Nc2cccc(n2)-c2nncn21 [Compound 37, (R)-10-Methyl-4-oxo-1^4H-6-oxa-3-aza-2(2,6),5(3,2)-dipyridina-1(3,4)-triazolacyclodecaphane-5^5-carbonitrile]
≤ 0.1	≤ 0.1			C[C@H]1CCCOc2ncc(-n3cnc(C4CC4)c3)cc2C(=O)Nc2cccc(n2)-c2nncn21 (single isomer, unassigned) [Compound 32]
		≥ 10	≥ 10	C[C@@H]1CCCOc2ncc(C(F)(F)F)cc2C(=O)Nc2cccc(n2)-c2nncn21 (single isomer, unassigned) [Compound 42]
≤ 0.1	0.1 to 1			Cc1cncn1-c1cnc2c(c1)C(=O)Nc1cccc(n1)-c1nncn1[C@@H](C)CCCO2 (single isomer, unassigned) [Compound 31]
